The test addresses human CGAS (157-522) (Homo sapiens, UniProt Q8N884). Put plainly: biochemical.

Structures can show the parent of a compound that is named as a salt.
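Further: biochemical enzyme reaction, 2′3′-cGAMP product measured by RapidFire mass spectrometry (MRM) normalised to c-di-UMP internal standard, inhibition of product formation relative to high and low control wells.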

human CGAS (157-522), sequence (Q8N884 157-522): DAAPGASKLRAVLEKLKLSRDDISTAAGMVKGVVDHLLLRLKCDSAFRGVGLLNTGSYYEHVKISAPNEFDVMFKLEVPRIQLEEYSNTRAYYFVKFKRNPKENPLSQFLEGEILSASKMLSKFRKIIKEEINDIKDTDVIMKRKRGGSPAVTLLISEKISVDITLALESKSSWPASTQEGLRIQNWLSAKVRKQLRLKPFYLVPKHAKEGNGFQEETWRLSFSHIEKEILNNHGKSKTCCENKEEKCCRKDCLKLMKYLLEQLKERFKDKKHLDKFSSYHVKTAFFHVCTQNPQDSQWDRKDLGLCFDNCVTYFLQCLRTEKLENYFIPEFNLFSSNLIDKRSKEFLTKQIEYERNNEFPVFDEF
Experimental: Compounds were serially diluted 2, 3, or 4-fold in neat DMSO to generate 11-point dose response curves and then 250 nL compound or DMSO solution was transferred to Greiner 384-well V-bottom assay plates (Catalog #781280) using an Echo acoustic dispenser (Labcyte). A solution of 150 μM ATP, 150 μM GTP, 20 μM pppGpA (GTP-2′5′-AMP, custom synthesis from ChemGenes), and 10 μg/mL sheared salmon sperm DNA (Sigma, Catalog #D1626) in assay buffer (20 mM Trizma, pH 7.5, 10 mM magnesium chloride, 0.3 mM CHAPS, and 0.01% (w/v) bovine serum albumin) was added to columns 1-17, 19-24 of the plate at 12.5 μL/well using a Combi liquid handler (ThermoFisher). A 12.5 μL/well low control solution containing 150 μM ATP, 150 μM GTP, 20 μM pppGpA in assay buffer was added to column 18 using the Combi. A 12.5 μL/well solution of 10-100 nM human CGAS (157-522) in assay buffer was then added to all wells of the plate using the Combi. […] Reactions were quenched by added 50 μL/well of 0.5% (v/v) trifluoroacetic acid (TFA) in mass spectrometry grade deionized water containing 5 μM cyclic-di-UMP (ci-di-UMP; Invivogen Catalog #tlrl-cdu) as the internal standard (IS). Plates were centrifuged for 1 min and then quenched reactions were analyzed using a RF-MS 300 system operating in a Multiple Reaction Monitoring (MRM) detection mode.
Samples (10 μL injection volume) were passed over a silica C18/type C solid phase extraction (SPE) cartridge for analyte (2′3′-cyclic guanosine monophosphate adenosine monophosphate (2′3′-cGAMP), product of biochemical reaction)/pppGpA/c-di-UMP IS adsorption. Adsorbed samples were desalted for 3000 ms using a 100% water eluent A/desalting solution. Afterwards, desalted samples were eluted using a 0.5% TFA in 20%/80% acetonitrile/water eluent B/elution solution directly into either a Sciex 4000, 5000 or 5500 triple quadrupole mass spectrometer (QQQ-MS) for MRM analyte/IS detection. QQQ-MS detection conditions were as follow: scan type: MRM; curtain (CUR) gas: 30 psi; nebulizer (GS1) gas: 50 psi; drying (GS2) gas: 60 psi; collisionally activated dissociation (CAD) gas: 12 relative setting; precursor ion (Q1) masses: 2′3′-cGAMP: m/z 675.1 Da/pppGpA: m/z 853.0 Da/c-di-UMP: m/z 613.1 Da; fragment ion (Q3) masses: 2′3′-cGAMP: m/z 524.1 Da/pppGpA: m/z 702.0 Da/c-di-UMP: 307.1 Da; declustering potentials (DPs): 2′3′-cGAMP: +81 V/pppGpA: +85 V/c-di-UMP: +85 V; entrance potential: +10 V (all analytes); collision energies (CEs): 2′3′-cGAMP: +33 V/pppGpA: +36 V/c-di-UMP: +35 V; collision cell exit potential (CXP): +10 V (all analytes); interface heater (Sciex 4000/5000 only): on; Q1 resolution: unit (all analyte); Q3 resolution: unit (all analytes). The area under the curve (AUC) for all analytes was obtained using the RapidFire Integrator software application to calculate AUC-2′3′-cGAMP/AUC-c-di-UMP intensity ratio. Percent product formation was calculated by comparison to column 6 (high control)/column 18 (low control) responses. The % product inhibition was calculated as follows:
[formula] where A is the minimum response, B is the maximum response, C is the log10*XC50, D is the slope factor, and x is the log10 compound concentration [M] in ABASE XE.

As usually defined, the IC50 is the concentration that gives 50% inhibition. High values mean a need for much substance, low ones inhibition by little substance. On to `Oc1cnc2nc(-c3nc(C(F)(F)F)n[nH]3)c(-c3cnc[nH]3)n2c1` [Example 60, 3-(1H-imidazol-5-yl)-2-[3-(trifluoromethyl)-1H-1,2,4-triazol-5-yl]imidazo[1,2-a]pyrimidin-6-ol], for which the 50% inhibitory concentration (IC50) is 0.000794 µM.

With `FC(F)(F)c1n[nH]c(-c2nc3nc4c(cn3c2-c2cnc[nH]2)CCO4)n1` [Example 48, 12-(1H-imidazol-5-yl)-11-[3-(trifluoromethyl)-1H-1,2,4-triazol-5-yl]-6-oxa-1,8,10-triazatricyclo[7.3.0.0^3,^7]dodeca-2,7,9,11-tetraene], the IC50 was 0.002 µM.

`Cc1cnc2nc(-c3nc(C(F)(F)F)n[nH]3)c(-c3cnc[nH]3)n2c1` [Example 54, 5-[3-(1H-imidazol-5-yl)-6-methylimidazo[1,2-a]pyrimidin-2-yl]-3-(trifluoromethyl)-1H-1,2,4-triazole]: it took 0.00631 µM to reach half-maximal inhibition (IC50).

As to `Brc1n[nH]c(-c2nc3ncccn3c2-c2c[nH]cn2)n1` [Example 37, 3-bromo-5-[3-(1H-imidazol-4-yl)imidazo[1,2-a]pyrimidin-2-yl]-1H-1,2,4-triazole, trifluoroacetic acid salt], the IC50 is 0.00316 µM.

Turning to `O=C(O)c1ccn2c(-c3c[nH]cn3)c(-c3nc(C(F)(F)F)n[nH]3)nc2n1` [Example 102, 3-(1H-imidazol-4-yl)-2-[3-(trifluoromethyl)-1H-1,2,4-triazol-5-yl]imidazo[1,2-a]pyrimidine-7-carboxylic acid], the 50% inhibitory concentration (IC50) was 0.00316 µM.

In turn, `CCc1nc2nc(-c3nc(C(F)(F)F)n[nH]3)c(-c3cnc[nH]3)n2cc1C` [Example 47, 5-[7-ethyl-3-(1H-imidazol-5-yl)-6-methylimidazo[1,2-a]pyrimidin-2-yl]-3-(trifluoromethyl)-1H-1,2,4-triazole] had a concentration for half-maximal inhibition (IC50) of 0.00158 µM.

The compound `[O-][S+]1CCc2nc3nc(-c4nc(C(F)(F)F)n[nH]4)c(-c4cnc[nH]4)n3cc2C1` (centres unmarked) [Example 116, 6-(1H-imidazol-5-yl)-5-[3-(trifluoromethyl)-1H-1,2,4-triazol-5-yl]-11λ^4-thia-2,4,7-triazatricyclo[7.4.0.0^3,^7]trideca-1,3,5,8-tetraen-11-one] gave an IC50 of 0.00501 µM.

The compound `FC(F)(F)c1n[nH]c(-c2nc3ncc(CCN4CCOCC4)cn3c2-c2cnc[nH]2)n1` [Example 122, 4-{2-[3-(1H-imidazol-5-yl)-2-[3-(trifluoromethyl)-1H-1,2,4-triazol-5-yl]imidazo[1,2-a]pyrimidin-6-yl]ethyl}morpholine] showed an IC50 of 0.00501 µM.

`Cc1n[nH]c(-c2nc3nc(C(F)(F)F)ccn3c2-c2cnc[nH]2)n1` [Example 98, 5-[3-(1H-imidazol-5-yl)-7-(trifluoromethyl)imidazo[1,2-a]pyrimidin-2-yl]-3-methyl-1H-1,2,4-triazole]: it took 0.794 µM to reach half-maximal inhibition (IC50).

With `COC(=O)c1ccn2c(-c3cn[nH]c3)c(-c3nc(Br)n[nH]3)nc2n1` [Example 35, methyl 2-(3-bromo-1H-1,2,4-triazol-5-yl)-3-(1H-pyrazol-4-yl)imidazo[1,2-a]pyrimidine-7-carboxylate], it took 0.00316 µM to reach half-maximal inhibition (IC50).

The compound `Cn1cc(-c2c(-c3nc(C(F)(F)F)n[nH]3)nc3ncccn23)cn1` [Example 131, 5-[3-(1-methyl-1H-pyrazol-4-yl)imidazo[1,2-a]pyrimidin-2-yl]-3-(trifluoromethyl)-1H-1,2,4-triazole] had a half-inhibitory concentration (IC50) of 15.8 µM.

`CC(C)(C)CNC(=O)c1cnc2nc(-c3nc(C(F)(F)F)n[nH]3)c(-c3cnc[nH]3)n2c1` [Example 94, N-(2,2-dimethylpropyl)-3-(1H-imidazol-5-yl)-2-[3-(trifluoromethyl)-1H-1,2,4-triazol-5-yl]imidazo[1,2-a]pyrimidine-6-carboxamide] showed a 50% inhibitory concentration (IC50) of 1.58 µM.

The compound `Cc1cn2c(-c3cnc[nH]3)c(-c3nc(C(F)(F)F)n[nH]3)nc2nc1C` [Example 52, 5-[3-(1H-imidazol-5-yl)-6,7-dimethylimidazo[1,2-a]pyrimidin-2-yl]-3-(trifluoromethyl)-1H-1,2,4-triazole] had an IC50 of 0.00501 µM.

In the case of `Cc1cn(C)c(COCc2cnc3nc(-c4nc(C(F)(F)F)n[nH]4)c(-c4c[nH]cn4)n3c2)n1` [Example 158, 5-(6-{[(1,4-dimethyl-1H-imidazol-2-yl)methoxy]methyl}-3-(1H-imidazol-4-yl)imidazo[1,2-a]pyrimidin-2-yl)-3-(trifluoromethyl)-1H-1,2,4-triazole], the IC50 was 0.00794 µM.

The compound `OC1CCN(c2ccn3c(-c4cnc[nH]4)c(-c4nc(C(F)(F)F)n[nH]4)nc3n2)C1` (centres unmarked) [Example 53, 1-[3-(1H-imidazol-5-yl)-2-[3-(trifluoromethyl)-1H-1,2,4-triazol-5-yl]imidazo[1,2-a]pyrimidin-7-yl]pyrrolidin-3-ol] showed an IC50 of 0.0158 µM.

`OC1CCCN(c2ccn3c(-c4cnc[nH]4)c(-c4nc(C(F)(F)F)n[nH]4)nc3n2)C1` (centres unmarked) [Example 56, 1-[3-(1H-imidazol-5-yl)-2-[3-(trifluoromethyl)-1H-1,2,4-triazol-5-yl]imidazo[1,2-a]pyrimidin-7-yl]piperidin-3-ol] had an IC50 of 0.02 µM.

Compound `FC(F)(F)c1ccn2c(-c3cnc[nH]3)c(-c3ncn[nH]3)nc2n1` [Example 97, 5-[3-(1H-imidazol-5-yl)-7-(trifluoromethyl)imidazo[1,2-a]pyrimidin-2-yl]-1H-1,2,4-triazole] showed an IC50 of 7.94 µM.

`CN1Cc2cn3c(-c4cnc[nH]4)c(-c4nc(C(F)(F)F)n[nH]4)nc3nc2C(F)(F)C1` [Example 18, 13,13-difluoro-6-(1H-imidazol-5-yl)-11-methyl-5-[3-(trifluoromethyl)-1H-1,2,4-triazol-5-yl]-2,4,7,11-tetraazatricyclo[7.4.0.0^3,7]trideca-1,3,5,8-tetraene, trifluoroacetic acid salt]: the 50% inhibitory concentration (IC50) was 0.0126 µM.

Take `FC(F)(F)c1n[nH]c(-c2nc3nc(N4CCOCC4)ccn3c2-c2c[nH]cn2)n1` [Example 42, 4-[3-(1H-imidazol-4-yl)-2-[3-(trifluoromethyl)-1H-1,2,4-triazol-5-yl]imidazo[1,2-a]pyrimidin-7-yl]morpholine]: the half-maximal inhibitory concentration (IC50) was 0.0251 µM.

`COC(=O)c1ccn2c(-c3c[nH]cn3)c(-c3nc(Br)n[nH]3)nc2n1` [Example 36, methyl 2-(3-bromo-1H-1,2,4-triazol-5-yl)-3-(1H-imidazol-4-yl)imidazo[1,2-a]pyrimidine-7-carboxylate] gave a half-inhibitory concentration (IC50) of 0.00316 µM.

With `CN(C)c1ccn2c(-c3cnc[nH]3)c(-c3nc(C(F)(F)F)n[nH]3)nc2n1` [Example 43], the IC50 is 0.0158 µM.

Regarding `COc1cc(OC)n2c(-c3c[nH]cn3)c(-c3nc(C(F)(F)F)n[nH]3)nc2n1` [Example 49, 5-[3-(1H-imidazol-4-yl)-5,7-dimethoxyimidazo[1,2-a]pyrimidin-2-yl]-3-(trifluoromethyl)-1H-1,2,4-triazole], the IC50 was 0.0126 µM.

`COc1cn2c(-c3c[nH]cn3)c(-c3nc(C(F)(F)F)n[nH]3)nc2nc1C` [Example 51, 5-[3-(1H-imidazol-4-yl)-6-methoxy-7-methylimidazo[1,2-a]pyrimidin-2-yl]-3-(trifluoromethyl)-1H-1,2,4-triazole] gave an IC50 of 0.01 µM.

In turn, `COc1nc2nc(-c3nc(C(F)(F)F)n[nH]3)c(-c3cnc[nH]3)n2cc1C` [Example 59, 5-[3-(1H-imidazol-5-yl)-7-methoxy-6-methylimidazo[1,2-a]pyrimidin-2-yl]-3-(trifluoromethyl)-1H-1,2,4-triazole] showed a concentration for half-maximal inhibition (IC50) of 0.0126 µM.

As for `CN1CCC(Oc2ccn3c(-c4c[nH]cn4)c(-c4nc(C(F)(F)F)n[nH]4)nc3n2)CC1` [Example 132, 4-{[3-(1H-imidazol-4-yl)-2-[3-(trifluoromethyl)-1H-1,2,4-triazol-5-yl]imidazo[1,2-a]pyrimidin-7-yl]oxy}-1-methylpiperidine], the IC50 is 0.0398 µM.

As for `FC(F)(F)c1n[nH]c(-c2nc3ncccn3c2-c2cn[nH]c2)n1` [Example 11, 5-[3-(1H-pyrazol-4-yl)imidazo[1,2-a]pyrimidin-2-yl]-3-(trifluoromethyl)-1H-1,2,4-triazole, trifluoroacetic acid salt], the IC50 was 0.01 µM.

As for `CS(=O)(=O)Oc1cnc2nc(-c3nc(C(F)(F)F)n[nH]3)c(-c3cnc[nH]3)n2c1` [Example 20, 3-(1H-Imidazol-5-yl)-2-(3-(trifluoromethyl)-1H-1,2,4-triazol-5-yl)imidazo[1,2-a]pyrimidin-6-yl methanesulfonate], the half-maximal inhibitory concentration (IC50) is 0.002 µM.

Compound `FC(F)(F)c1n[nH]c(-c2nc3ncc(COc4cccnc4)cn3c2-c2cnc[nH]2)n1` [Example 119, 3-{[3-(1H-imidazol-5-yl)-2-[3-(trifluoromethyl)-1H-1,2,4-triazol-5-yl]imidazo[1,2-a]pyrimidin-6-yl]methoxy}pyridine] showed an IC50 of 0.158 µM.

`CC(C)Oc1ccn2c(-c3c[nH]cn3)c(-c3nc(Br)n[nH]3)nc2n1` [Example 40, 3-bromo-5-[3-(1H-imidazol-4-yl)-7-(propan-2-yloxy)imidazo[1,2-a]pyrimidin-2-yl]-1H-1,2,4-triazole] showed a half-maximal inhibitory concentration (IC50) of 0.0251 µM.

As for `FC(F)(F)c1n[nH]c(-c2nc3ncc(Cl)cn3c2-c2cnc[nH]2)n1` [Example 45, 5-[6-chloro-3-(1H-imidazol-5-yl)imidazo[1,2-a]pyrimidin-2-yl]-3-(trifluoromethyl)-1H-1,2,4-triazole], the midpoint of inhibition, the IC50, lay at 0.00316 µM.

The compound `CC(O)C(O)COCc1cnc2nc(-c3nc(C(F)(F)F)n[nH]3)c(-c3cnc[nH]3)n2c1` (centres unmarked) [Example 112, 1-{[3-(1H-imidazol-5-yl)-2-[3-(trifluoromethyl)-1H-1,2,4-triazol-5-yl]imidazo[1,2-a]pyrimidin-6-yl]methoxy}butane-2,3-diol] showed a concentration for half-maximal inhibition (IC50) of 0.00794 µM.

In turn, `O=C(O)Cc1cnc2nc(-c3nc(C(F)(F)F)n[nH]3)c(-c3cnc[nH]3)n2c1` [Example 92, 2-[3-(1H-imidazol-5-yl)-2-[3-(trifluoromethyl)-1H-1,2,4-triazol-5-yl]imidazo[1,2-a]pyrimidin-6-yl]acetic acid] gave a concentration for half-maximal inhibition (IC50) of 0.01 µM.

The record behind these values is patent US12247033B2, “Triazole-substituted imidazo[1,2-a]pyrimidines as cGAS inhibitors” (GlaxoSmithKline Intellectual Property Development Limited, priority 2022, dated 2025).
